Data: PubChem BioAssay AID248 (DTP/NCI, 2004)
Toxic doses and inconclusive results are not listed. No stated cut-off is given here; in the data, active means T/C of 150% or more; inactive means T/C below 125%.

Test system: L1210 leukemia ip in BDF1 mice, survival T/C
Assay: NCI In Vivo Anticancer Drug Screen. Data for tumor model L1210 Leukemia (intraperitoneal) in B6D2F1 (BDF1) mice
Conditions: endpoint: mean survival time, higher = longer survival
How it was run: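 Read-out is survival time, reported as the treated-group measurement over the vehicle-control measurement.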

Measured: T/C

O=C(O)c1cc(=O)c2ccc(Cl)cc2[nH]1
inactive: dose: 100.0 mg/kg/injection, schedule: Q01DX001 (ip), vehicle: saline 90 % of control | dose: 100.0 mg/kg/injection, schedule: Q04DX003 (ip), vehicle: other 88 % of control | dose: 200.0 mg/kg/injection, schedule: Q01DX001 (ip), vehicle: saline 98 % of control | dose: 200.0 mg/kg/injection, schedule: Q04DX003 (ip), vehicle: other 91 % of control | dose: 400.0 mg/kg/injection, schedule: Q01DX001 (ip), vehicle: saline 102 % of control | dose: 400.0 mg/kg/injection, schedule: Q04DX003 (ip), vehicle: other 98 % of control

COC(=O)c1ccccc1N=Nc1cc(C)c(C)cc1O
inactive: dose: 100.0 mg/kg/injection, schedule: Q01DX009 (ip), vehicle: Klucel (hydroxypropylcellulose) (HPC) 88 % of control | dose: 200.0 mg/kg/injection, schedule: Q01DX009 (ip), vehicle: Klucel (hydroxypropylcellulose) (HPC) 88 % of control | dose: 400.0 mg/kg/injection, schedule: Q01DX009 (ip), vehicle: Klucel (hydroxypropylcellulose) (HPC) 91 % of control
